Assays:
E. Coli E96 = experiment: Subcutaneous synergistic activity with amoxycillin, intraperitoneal mouse infection, E. Coli E96; assay type: in vivo
Text: (§1) 9-N-Isobutylaminodeoxyclavulanic acid and 9-N-n-butylaminodeoxyclavulanic acid have been compared as synergists in vivo by the subcutaneous route against 2 strains of RTEM E. Coli in intraperitoneal mouse infections.
(§2) Comparative subcutaneous synergistic activity of 9-N-Isobutylaminodeoxyclavulanic acid and 9-N-n-butylaminodeoxyclavulanic acid with amoxycillin against mouse E. Coli infections

Aqueous solubility = assay type: physicochemical
E. coli JT 39 [1] = experiment: Effectiveness as synergist with amoxycillin, peritoneal infection due to E. coli JT 39 (Demonstration 2); assay type: in vivo; settings: for ED50: Escherichia coli, JT39, sc, Test 1, alone, sub-cutaneous 1 and 5 hours post infection, read-out: CD50 (approximate), compound alone
E. Coli E124 = experiment: Subcutaneous synergistic activity with amoxycillin, intraperitoneal mouse infection, E. Coli E124; assay type: in vivo
Text: as §1, §2

[2] = tested on: staphylococcus aureus Russell; experiment: Effectiveness as anti-bacterial, mice infected with Staphylococcus aureus Russell (thigh lesion); assay type: in vivo; settings: for Protection (%): subcutaneous at 1, 3 and 5 hours post infection
Method: Mice were infected with staphylococcus aureus Russell (thigh lesion with 0.2 ml im) and thereafter were dosed subcutaneously at 1, 3 and 5 hours post infection with a solution of the test compound.

E. coli JT 39 [3] = experiment: In-vivo synergistic effect with amoxycillin in mice infected by E. coli JT 39
Method: This microorganism produces considerable quantities of a β-lactamase which degrades amoxycillin so reducing its antibaceterial effectiveness in-vivo.
(Sodium amoxycillin was prepared by dissolving amoxycillin trihydrate in
sodium carbonate/sodium bicarbonate buffer).

[4] = tested on: β-lactamase producing strains of gram-negative and gram-positive bacteria; experiment: Synergistic/antibacterial activity in-vivo, general statement; settings: with penicillins and cephalosporins
in vivo = settings: mouse, ip
LD50 in mice = settings: mouse, in vivo, sc

In the case of `CC(C)CNC/C=C1\O[C@@H]2CC(=O)N2[C@H]1C(=O)O` [9-N-Isobutylaminodeoxyclavulanic acid], the “relative synergist activity in vivo, 2 strains of RTEM E. Coli” value (E. Coli E96; subcutaneous route, intraperitoneal mouse infections, both strains (E96, E124)) is reported as “more active then the n-butylamine” and the aqueous solubility (Aqueous solubility) is reported as “increased aqueous solubility”.
For `CC1(C)S[C@@H]2[C@H](NC(=O)[C@H](N)c3ccc(O)cc3)C(=O)N2[C@H]1C(=O)O` [Amoxycillin], the ED50 (E. coli JT 39 [1]) was 1000 mg/kg, the “CD50 (approximate), compound alone” value (E. coli JT 39 [1]; Test 2, sub-cutaneous 1 and 5 hours post infection) was 1000 mg/kg × 2 and the “CD50 (approximate), compound alone” value (E. coli JT 39 [1]; Test 3, sub-cutaneous 1 and 5 hours post infection) was 1000 mg/kg × 2. The “CD50, amoxycillin alone” value (E. Coli E96; E. Coli E96, P409, alone) was greater than 1000 mg/kg × 2, the ED50 (E. Coli E96; Escherichia coli, sc, E. Coli E96, P392, alone, read-out: CD50, amoxycillin alone) was greater than 1000 mg/kg and the “CD50, amoxycillin alone” value (E. Coli E124; E. Coli E124, P412) was greater than 1000 mg/kg × 2. For the same compound, the ED50 (E. Coli E124; Escherichia coli, sc, E. Coli E124, P397, alone, read-out: CD50, amoxycillin alone) was greater than 1000 mg/kg.
For `Cc1nnc(SCC2=C(C(=O)O)N3C(=O)[C@@H](NC(=O)Cn4cnnn4)[C@H]3SC2)s1` [Cefazolin, reference compound], the ED50 (E. coli JT 39 [1]) was 10.5 mg/kg, the “Protection (%)” value ([2]; 20 mg/kg) was 39.0% and the “Protection (%)” value ([2]; 50 mg/kg) was 71.2%.
In the case of `Cc1onc(-c2ccccc2Cl)c1C(=O)N[C@@H]1C(=O)N2[C@@H]1SC(C)(C)[C@@H]2C(=O)O` [Cloxacillin, reference compound], the “Protection (%)” value ([2]; 20 mg/kg) is reported as 61.6% and the “Protection (%)” value ([2]; 50 mg/kg) is reported as 91.7%.
With `O=C(O)[C@H]1/C(=C/CNCc2ccccc2)O[C@@H]2CC(=O)N21` [Example 2, 9-N-Benzylaminodeoxyclavulanic acid] the “protecting amoxycillin from the β-lactamase of E. coli JT 39 in-vivo” value (E. coli JT 39 [3]; administered orally) was “less effective per given weight than when administered sub-cutaneously”, the “toxic effects during these tests” value (E. coli JT 39 [3]; in-vivo synergy tests, mice) was “not observed to produce toxic effects” and the “Protection (%)” value ([2]; 5 mg/kg) was 69.8%. The “Protection (%)” value ([2]; 10 mg/kg) was 89.7%, the “Protection (%)” value ([2]; 20 mg/kg) was 99.3% and the “effectiveness in treating certain infections due to Staphylococcus aureus Russell” value ([2]; compared with ampicillin, cloxacillin or cefazolin) was “more effective than ampicillin, cloxacillin or cefazolin”. The synergistic activity in-vivo [4] was “particularly good synergistic activity in-vivo”, the LD50 (in vivo) was greater than 1000 mg/kg and the LD50 (LD50 in mice) was greater than 500 mg/kg.
With `COc1ccc(CNC/C=C2\O[C@@H]3CC(=O)N3[C@H]2C(=O)O)cc1` [Example 7, 9-N-(4-Methoxybenzyl)aminodeoxyclavulanic acid] the “Protection (%)” value ([2]; 5 mg/kg) was 28.0%, the “Protection (%)” value ([2]; 10 mg/kg) was 80.8% and the “Protection (%)” value ([2]; 20 mg/kg) was 87.6%.
`CC1(C)S[C@@H]2[C@H](NC(=O)[C@H](N)c3ccc(O)cc3)C(=O)N2[C@H]1C(=O)O` [Sodium amoxycillin, reference compound] showed an ED50 (E. coli JT 39 [3]; Escherichia coli, JT39, sc, sub-cutaneous, mice, alone, read-out: CD50, sodium amoxycillin alone) of 200 mg/kg.
